Converted amounts (≈) assume the structure as drawn. Where two headings read alike, the source gives them in different places. Ends that are not written are not given here.
Legend:
[1] = test system: E. coli stress response genes (strain MG1655); test: Relative gene expression of stress response genes by quantitative real-time PCR; assay type: cell-based, Escherichia coli; conditions: for Expression, cpxA (Envelope stress) / Expression, cpxR (Envelope stress) / Expression, dinB (SOS response) / Expression, lexA (SOS response) / Expression, marR (Independent multiple antibiotic resistance) / Expression, oxyR (Oxidative stress) / Expression, phoP (Envelope stress) / Expression, phoQ (Envelope stress) / Expression, recA (SOS response) / Expression, rpoE (Envelope stress) / Expression, rpoS (Sigma S response) / Expression, umuC (SOS response): normalized to arcA, mdoG, tus, Pexiganan 16, Melittin 16, Kanamycin 16, Ciprofloxacin 0.5, Lysozyme 128, Ampicillin 32 μg/ml, three biological replicates; on Result, cpxR: key: NDE: non-differentially expressed, p-value ≥ 0,05; UP: upregulated, p-value ≤ 0,05; DOWN: downregulated, p-value ≤ 0,05; on Result, oxyR: key: NDE: non-differentially expressed, p-value ≥ 0,05; UP: upregulated, p-value ≤ 0,05; DOWN: downregulated, p-value ≤ 0,05; on Result, rpoE: key: NDE: non-differentially expressed, p-value ≥ 0,05; UP: upregulated, p-value ≤ 0,05; DOWN: downregulated, p-value ≤ 0,05
Procedure: Preparation of each of the six treatments and the control samples was carried out by two operators on three consecutive days, thereby comprising three biological replicates for each of the six experimental and one control groups. To obtain the starting material for the experiment, a fresh bacterial culture was grown from a glycerol stock on Mueller-Hinton (MH) agar plates at 37°C for 18–24 hours. One well-isolated colony per biological replicate was used to inoculate 2 ml of liquid MH (Sigma) in a 10 ml sterile polypropylene tube and incubated at 37°C for 16 hours with mild shaking. The overnight (ON) culture was then diluted 1∶100 in MH, subdivided into seven 10 ml aliquots and incubated in 50 ml-Falcon tubes at 37°C for 2.5 hours at 220 rpm. When the OD600 of bacterial cultures reached 0.5–0.7, respective antibiotics and AMPs were added to a concentration to match with those used in the mutagenesis experiments. These bacterial cultures were incubated for 20 minutes at 37°C with gentle shaking. Two ml of bacterial cultures from each treatment and the control were collected, immediately centrifuged at 10000 g for 2 minutes and the supernatant was removed to stop the treatment. The bacterial pellet was then resuspended in 1 ml MH, followed by an addition of 1 ml of RNAprotect Bacteria Reagent (Qiagen), 5 minutes incubation and centrifugation at 10000 g for 2 minutes at room temperature. The supernatant was discarded and the bacterial pellet was immediately frozen and stored at −80°C until RNA extraction.
Total RNA was isolated using RNeasy kit (Qiagen) according to the manufacturer's instructions and eluted in 50 µl of RNase-free water. The nucleic acid yield and purity were determined by measuring the optical density at A260/280 using a Nanodrop spectrophotometer (Thermo Scientific). RNA samples were treated with TURBO DNase (Life Technologies). Briefly, ten µg of RNA were used in a total volume of 500 µl containing 20 units of TURBO DNase, incubated for 30 minutes at 37°C, immediately followed by RNeasy (Qiagen) cleanup and elution in 30 µl of RNase-free water. Following DNase treatment, RNA integrity was assessed using Agilent RNA 6000 Nano kit and 2100 Bioanalyzer instrument (both Agilent Technologies).
High-Capacity cDNA Reverse Transcription Kit with RNase Inhibitor (Applied Biosystems) was used for cDNA synthesis. Initially, to ensure linear conversion of the transcripts, the dynamic range of reverse transcription reaction was tested by performing a standard curve with cDNA, synthesised using various input amounts of pooled RNA. Total RNA (250 ng per reaction) and random primers were used for cDNA synthesis. To obtain sufficient amount of cDNA, several batches of 20 µl RT reactions were pooled, diluted 50-fold with RNase-free water and stored in single-use aliquots at −80°C until further use. All 21 samples were tested for presence of contaminating genomic DNA by running the mdoG assay with cDNA and the respective no reverse transcription (−RT) controls.
Escherichia coli strain K-12 substrain MG1655 complete genome (accession U00096) sequence was downloaded from NCBI database (www.ncbi.nlm.nih.gov) and used for primer design. Target sequence accession number, location of the amplicon, amplicon length and primer sequences for each assay can be found in table S2. Primers were designed using Primer Express software (Applied Biosystems) and optimized for annealing temperature of 60°C. Each primer pair and amplicon were checked for secondary structure formation using Oligo Tool (Integrated DNA technologies, http://eu.idtdna.com/analyzer/Applications/OligoAnalyzer/).

E. coli MG1655 [2] = test: Luria-Delbrück fluctuation assay, mutation rate (rifampicin resistance); assay type: cell-based, Escherichia coli; conditions: concentrations ranging from 0.5 to 4 µg/ml (Figure S1)
Procedure: We first investigated the mutation rates of E. coli using a Luria-Delbrück fluctuation test. We used the Escherichia coli strain MG1655 and the concentration of all antimicrobials was adjusted to limit bacterial growth to 50% in four hours of treatment.
The duration of treatment was set to 4 hours for all antimicrobials, and the concentrations were adjusted to obtain around 50% of inhibition of grow in comparison to the a non-treated control. Three ml of exponentially growing culture of E. coli MG1655 (∼2×10^8 cells/ml) were centrifuged at 4000 g for 10 minutes and re-suspended in the same volume of MH with different concentrations of antimicrobials at 37°C with shaking (200 rpm). After incubation, the cultures were centrifuged for 10 min at 4000 g. The pellet was re-suspended, washed twice with MH and re-suspended in 3 ml of fresh medium and incubated overnight (16 h) at 37°C with shaking. This step is necessary to resolve the filaments that some antimicrobials induce due to their toxic action and allow recovery of cells under stress. Cultures were diluted and plated to determine the number of colony forming units in MH agar plates. The number of mutants was estimated by the number of colonies growing on rifampicin (100 µg/ml). […]
We also assessed if different AMP concentrations (Fig. S1) or different inoculum sizes (10^2, 10^4, 10^6, 10^8 cfu/ml) influenced mutation rates (Fig. S2).

E. coli MG1655 [3] = test: microbe, parasite or virus in culture; assay type: cell-based, Escherichia coli; conditions: 4 hours, 50% reduction of CFUs vs control, Mueller Hinton Broth, 37°C, five replicates, repeated twice
Procedure: The MIC50s for all antimicrobials were determined by inoculating strains grown to mid-log phase into the wells of a 96-microwell plate. Approximately 10^2 cells from overnight cultures were inoculated into tubes containing 10 ml of Mueller Hinton Broth medium, and the tubes were incubated at 37°C with strong shaking until the mid-log phase of growth (approximately 10^8 cells/ml). […] The plates were incubated at 37°C for 4 h with continuous shaking in a plate reader (Synergy 2, BioTeK). After four hours, aliquots from wells with OD^600 readings ranging from 10 to 90% values in comparison with the control, were serially diluted in sterile 0.9% NaCl, and incubated during 1 hour to allow the resolution of filaments as consequence of SOS activation, if any. Bacterial suspensions were plated in Mueller Hinton Broth agar plates to estimate the viability as colony forming units (CFUs). Five replicates per concentration were prepared and the experiments were repeated twice.

E. coli MG1655 [4] = test: Minimal inhibitory concentration (MIC), micro-dilution; assay type: cell-based, Escherichia coli; conditions: inoculum 2×10^8 cfu/ml, 24 h, liquid MH medium, 37°C
Procedure: E. coli K-12 MG1655 was used for all experiments, grown in liquid Mueller-Hilton (MH) agar or agarose, unless otherwise indicated. All experiments were carried out at 37°C.
MICs were determined according to CLSI recommendations by a micro-dilution method with the exception that the inoculum size that was adjusted to 2×10^8 cfu/ml from a regrowth of overnight cultures to be consistent with the mutagenesis experiments. […] Polypropylene non-binding plates (Th. Geyer, Germany) were used for all experiments.

E. coli MG1655 [5] = test: Killing by AMPs under thiourea ROS scavenger; assay type: cell-based, Escherichia coli; conditions: thiourea 100 mM (Figure S3)
Procedure: SOS and rpoS mediated mutagenesis are well supported by empirical work, and it was recently proposed that antibiotics promote ROS formation and kill bacterial by lethal induction of hydroxyl-mediated DNA damage. Here we explored this new and debated proposition also for AMPs. We assessed AMP killing curves in E. coli MG1655 in the presence of the ROS scavenger thiourea (100 mM) and used Kanamycin as positive control.
Kanamycin was used a positive control. The procedure was the same as described in this work elsewhere for MIC50 (Fig. S3).

[6] = test system: E. coli stress response genes; conditions: kanamycin 5 μg/ml, ref Kohanski,2007, cited from earlier work
[7] = qPCR, 20 minutes exposure vs non-treated bacteria, REST 2009 randomisation test
[8] = qPCR, 20 minutes exposure vs non-treated bacteria

| Compound | Result, cpxA [1, 7] | Result, cpxR [1, 7] | Result, dinB [1, 7] | Result, lexA [1, 7] | Result, marR [1, 7] | Result, oxyR [1, 7] | Result, phoP [1, 7] | Result, phoQ [1, 7] | Expression, cpxA (Envelope stress) [1, 8] | Expression, cpxR (Envelope stress) [1, 8] | Expression, dinB (SOS response) [1, 8] | Expression, lexA (SOS response) [1, 8] | Expression, marR (Independent multiple antibiotic resistance) [1, 8] | Expression, oxyR (Oxidative stress) [1, 8] | Expression, phoP (Envelope stress) [1, 8] | Expression, phoQ (Envelope stress) [1, 8] | Expression, recA (SOS response) [1, 8] | Expression, rpoE (Envelope stress) [1, 8] | Expression, rpoS (Sigma S response) [1, 8] | Expression, umuC (SOS response) [1, 8] | other results |
| --- | --- | --- | --- | --- | --- | --- | --- | --- | --- | --- | --- | --- | --- | --- | --- | --- | --- | --- | --- | --- | --- |
| CC[C@H](C)[C@H](NC(=O)CN)C(=O)NCC(=O)N[C@@H](C)C(=O)N[C@H](C(=O)N[C@@H](CC(C)C)C(=O)N[C@@H](CCCCN)C(=O)N[C@H](C(=O)N[C@@H](CC(C)C)C(=O)N[C@H](C(=O)N[C@H](C(=O)NCC(=O)N[C@@H](CC(C)C)C(=O)N1CCC[C@H]1C(=O)N[C@@H](C)C(=O)N[C@@H](CC(C)C)C(=O)N[C@H](C(=O)N[C@@H](CO)C(=O)N[C@@H](Cc1c[nH]c2ccccc12)C(=O)N[C@H](C(=O)N[C@@H](CCCCN)C(=O)N[C@@H](CCCNC(=N)N)C(=O)N[C@@H](CCCCN)C(=O)N[C@@H](CCCNC(=N)N)C(=O)N[C@@H](CCC(N)=O)C(=O)N[C@@H](CCC(N)=O)C(N)=O)[C@@H](C)CC)[C@@H](C)CC)[C@@H](C)O)[C@@H](C)O)C(C)C)C(C)C [Melittin] | NDE | NDE | NDE | NDE | NDE | NDE | NDE | NDE | 1.295 | 0.953 | 0.991 | 1.1 | 0.743 | 1.337 | 0.857 | 0.87 | 1.12 | 1.197 | 0.972 | 0.926 | Result, recA [1, 7]: NDE; Result, rpoE [1, 7]: NDE; Result, rpoS [1, 7]: NDE; Result, umuC [1, 7]: NDE; mutation rates over a gradient of sub-inhibitory to inhibitory concentrations (E. coli MG1655 [2]): did not change; MIC50 (E. coli MG1655 [3]): 1.6 µg/mL |
| NC[C@H]1O[C@H](O[C@H]2[C@H](O)[C@@H](O[C@H]3O[C@H](CO)[C@@H](O)[C@H](N)[C@H]3O)[C@H](N)C[C@@H]2N)[C@H](O)[C@@H](O)[C@@H]1O [Kanamycin] | NDE | NDE | NDE | NDE | NDE | NDE | NDE | NDE | 1.069 | 0.812 | 1.083 | 1.302 | 1.073 | 1.333 | 0.94 | 0.769 | 1.331 | 1.236 | 0.967 | 0.974 | Result, recA [1, 7]: NDE; Result, rpoE [1, 7]: NDE; Result, rpoS [1, 7]: NDE; Result, umuC [1, 7]: NDE; MIC (E. coli MG1655 [4]): 2 µg/mL (≈ 4.13 µM); MIC50 (E. coli MG1655 [3]): 1.6 µg/mL; killing / sensitivity in the presence of the ROS scavenger thiourea (E. coli MG1655 [5]): reduced sensitivity; expression, rpoE (microarray database) ([6]; 30 min): 2.118; expression, marR (microarray database) ([6]; 60 min): 8.767; expression, phoP (microarray database) ([6]; 60 min): 2.411; expression, lexA (microarray database) ([6]; 120 min): 3.48; expression, oxyR (microarray database) ([6]; 120 min): 3.362 |
| GIGKFLKKAKKFGKAFVKILKK-NH2 (C-terminus assumed) [Pexiganan] | – | – | – | – | – | – | – | – | 0.893 | 0.846 | 1.114 | 1.049 | 4.048 | 1.187 | 3.074 | 2.447 | 0.733 | 1.108 | 1.353 | 0.925 | Result, cpxA [1]: NDE; Result, cpxR [1]: NDE; Result, dinB [1]: NDE; Result, lexA [1]: NDE; Result, marR [1]: UP (4.05-fold); Result, oxyR [1]: NDE; Result, phoP [1]: UP (3.07-fold); Result, phoQ [1]: UP (2.45-fold); Result, recA [1]: NDE; Result, rpoE [1]: NDE; Result, rpoS [1]: NDE; Result, umuC [1]: NDE; overexpression of three envelope stress genes (marR, phoP and phoQ) ([1]; qPCR, 20 minutes exposure): overexpression; mutation rates over a gradient of sub-inhibitory to inhibitory concentrations (E. coli MG1655 [2]): did not change; MIC (E. coli MG1655 [4]): 2 µg/mL |

Source: paper PMC4192597, “Antimicrobials, Stress and Mutagenesis” (PLoS Pathogens, 2014)
